Data taken from the NIST ThermoML archive (doi:10.1021/je800653d).
Numbers after ± are expanded uncertainties.

Assay: xn = mol fraction of the nth substance listed
Details: 101 kPa, Liquid; for viscosity: Capillary tube (Ostwald / Ubbelohde) method; for speed of sound: Linear variable-path acoustic interferometer

O=S1(=O)CCCC1 [sulfolane] + CCCCOC(C)=O
Details | mass density, 303.15 K [kg/m3] | mass density, 308.15 K [kg/m3] | mass density, 313.15 K [kg/m3] | speed of sound, 303.15 K [m/s] | speed of sound, 308.15 K [m/s] | speed of sound, 313.15 K [m/s] | viscosity, 303.15 K [mPa·s] | viscosity, 308.15 K [mPa·s] | viscosity, 313.15 K [mPa·s]
x1 = 0.0311 | 880.8 ± 0.8 | 876.9 ± 0.8 | 871.8 ± 0.8 | 1182 ± 5 | 1164 ± 5 | 1146 ± 5 | 0.6426 ± 0.0064 | 0.6016 ± 0.006 | 0.5637 ± 0.0057
x1 = 0.1903 | 932.3 ± 0.8 | 928.6 ± 0.9 | 923.5 ± 0.9 | 1232 ± 5 | 1212 ± 5 | 1193 ± 5 | 0.895 ± 0.0085 | 0.8248 ± 0.0079 | 0.7699 ± 0.0074
x1 = 0.3402 | 985.2 ± 0.9 | 980.9 ± 0.9 | 975.4 ± 0.9 | 1280 ± 5 | 1261 ± 5 | 1245 ± 5 | 1.242 ± 0.011 | 1.145 ± 0.011 | 1.066 ± 0.01
x1 = 0.474 | 1036.1 ± 1 | 1030.9 ± 1 | 1025.4 ± 1 | 1327 ± 6 | 1316 ± 6 | 1301 ± 5 | 1.722 ± 0.016 | 1.577 ± 0.014 | 1.457 ± 0.013
x1 = 0.5789 | 1078.5 ± 1 | 1072.7 ± 1 | 1067.1 ± 1.1 | 1372 ± 6 | 1366 ± 6 | 1354 ± 6 | 2.3 ± 0.021 | 2.082 ± 0.019 | 1.903 ± 0.017
x1 = 0.6793 | 1120.5 ± 1.1 | 1114.4 ± 1.1 | 1108.8 ± 1.1 | 1424 ± 6 | 1418 ± 6 | 1408 ± 6 | 3.027 ± 0.027 | 2.717 ± 0.024 | 2.471 ± 0.022
x1 = 0.7887 | 1168.2 ± 1.1 | 1162.1 ± 1.2 | 1156.6 ± 1.2 | 1477 ± 6 | 1468 ± 6 | 1466 ± 6 | 4.275 ± 0.037 | 3.837 ± 0.034 | 3.436 ± 0.03
x1 = 0.8876 | 1212.2 ± 1.2 | 1207.1 ± 1.2 | 1201.5 ± 1.3 | 1528 ± 6 | 1520 ± 6 | 1510 ± 6 | 6.2 ± 0.052 | 5.499 ± 0.047 | 4.902 ± 0.042
x1 = 0.9836 | 1254.2 ± 1.3 | 1250.1 ± 1.3 | 1244.8 ± 1.3 | 1577 ± 7 | 1572 ± 7 | 1556 ± 6 | 9.049 ± 0.072 | 7.925 ± 0.064 | 6.987 ± 0.058
x1 = 1 | 1261.8 ± 1.3 | 1257 ± 1.3 | 1251.6 ± 1.3 | 1588 ± 7 | 1576 ± 7 | 1558 ± 7 | 10.03 ± 0.079 | 8.795 ± 0.07 | 7.837 ± 0.063

O=S1(=O)CCCC1 [sulfolane] + CCCOC(C)=O
Details | mass density, 303.15 K [kg/m3] | mass density, 308.15 K [kg/m3] | mass density, 313.15 K [kg/m3] | speed of sound, 303.15 K [m/s] | speed of sound, 308.15 K [m/s] | speed of sound, 313.15 K [m/s] | viscosity, 303.15 K [mPa·s] | viscosity, 308.15 K [mPa·s] | viscosity, 313.15 K [mPa·s]
x1 = 0.0247 | 886.9 ± 0.8 | 881.9 ± 0.8 | 875.7 ± 0.8 | 1154 ± 5 | 1147 ± 5 | 1134 ± 5 | 0.5146 ± 0.0056 | 0.4827 ± 0.005 | 0.4554 ± 0.0048
x1 = 0.1746 | 941.4 ± 0.8 | 935.8 ± 0.9 | 929.8 ± 0.9 | 1214 ± 5 | 1203 ± 5 | 1189 ± 5 | 0.726 ± 0.0071 | 0.6764 ± 0.0067 | 0.6342 ± 0.0063
x1 = 0.311 | 992.9 ± 0.9 | 986.9 ± 0.9 | 981.3 ± 1 | 1266 ± 5 | 1257 ± 5 | 1243 ± 5 | 1.019 ± 0.0096 | 0.9439 ± 0.0089 | 0.8781 ± 0.0084
x1 = 0.4416 | 1043.1 ± 1 | 1037.9 ± 1 | 1032.4 ± 1 | 1322 ± 6 | 1312 ± 6 | 1301 ± 5 | 1.438 ± 0.013 | 1.325 ± 0.012 | 1.222 ± 0.011
x1 = 0.5468 | 1084.6 ± 1 | 1079.6 ± 1.1 | 1074 ± 1.1 | 1368 ± 6 | 1359 ± 6 | 1352 ± 6 | 1.922 ± 0.017 | 1.762 ± 0.016 | 1.617 ± 0.015
x1 = 0.6489 | 1124.9 ± 1.1 | 1120.1 ± 1.1 | 1114.1 ± 1.1 | 1419 ± 6 | 1410 ± 6 | 1401 ± 6 | 2.624 ± 0.023 | 2.375 ± 0.021 | 2.176 ± 0.019
x1 = 0.7639 | 1169.5 ± 1.1 | 1164.7 ± 1.2 | 1159.4 ± 1.2 | 1474 ± 6 | 1469 ± 6 | 1458 ± 6 | 3.92 ± 0.034 | 3.502 ± 0.031 | 3.185 ± 0.028
x1 = 0.8733 | 1212.3 ± 1.2 | 1207.6 ± 1.2 | 1202.2 ± 1.3 | 1530 ± 6 | 1521 ± 6 | 1510 ± 6 | 5.863 ± 0.049 | 5.217 ± 0.045 | 4.662 ± 0.04
x1 = 0.9823 | 1255.4 ± 1.3 | 1251 ± 1.3 | 1245.4 ± 1.3 | 1579 ± 7 | 1573 ± 7 | 1555 ± 6 | 9.305 ± 0.074 | 8.132 ± 0.065 | 7.222 ± 0.059
x1 = 1 | 1261.8 ± 1.3 | 1257 ± 1.3 | 1251.6 ± 1.3 | 1588 ± 7 | 1576 ± 7 | 1558 ± 7 | 10.03 ± 0.079 | 8.795 ± 0.07 | 7.837 ± 0.063

O=S1(=O)CCCC1 [sulfolane] + CCOC(C)=O
Details | mass density [kg/m3] | speed of sound [m/s] | viscosity [mPa·s]
298.15 K, x1 = 1 | 1263.9 ± 1.3 | 1601 ± 7 | –
303.15 K, x1 = 0.0218 | 897.8 ± 0.8 | 1134 ± 5 | 0.4006 ± 0.0043
303.15 K, x1 = 0.1511 | 950.7 ± 0.9 | 1196 ± 5 | 0.5566 ± 0.0056
303.15 K, x1 = 0.2748 | 1001.1 ± 0.9 | 1251 ± 5 | 0.7832 ± 0.0076
303.15 K, x1 = 0.4012 | 1052.3 ± 1 | 1313 ± 6 | 1.118 ± 0.01
303.15 K, x1 = 0.5068 | 1094 ± 1 | 1366 ± 6 | 1.5 ± 0.014
303.15 K, x1 = 0.598 | 1127.6 ± 1.1 | 1408 ± 6 | 2.054 ± 0.018
303.15 K, x1 = 0.7331 | 1175.4 ± 1.2 | 1472 ± 6 | 3.211 ± 0.028
303.15 K, x1 = 0.8548 | 1215.5 ± 1.2 | 1524 ± 6 | 5.285 ± 0.045
303.15 K, x1 = 0.9799 | 1255.5 ± 1.3 | 1579 ± 7 | 9.205 ± 0.073
303.15 K, x1 = 1 | 1261.8 ± 1.3 | 1588 ± 7 | 10.03 ± 0.079
308.15 K, x1 = 0.0218 | 893.2 ± 0.8 | 1121 ± 5 | 0.3819 ± 0.0041
308.15 K, x1 = 0.1511 | 947.1 ± 0.9 | 1185 ± 5 | 0.5275 ± 0.0054
308.15 K, x1 = 0.2748 | 997.7 ± 0.9 | 1241 ± 5 | 0.73 ± 0.0071
308.15 K, x1 = 0.4012 | 1048.8 ± 1 | 1301 ± 5 | 1.042 ± 0.0098
308.15 K, x1 = 0.5068 | 1090.3 ± 1.1 | 1355 ± 6 | 1.394 ± 0.013
308.15 K, x1 = 0.598 | 1123.9 ± 1.1 | 1398 ± 6 | 1.882 ± 0.017
308.15 K, x1 = 0.7331 | 1171.5 ± 1.2 | 1465 ± 6 | 2.923 ± 0.026
308.15 K, x1 = 0.8548 | 1211.6 ± 1.2 | 1515 ± 6 | 4.756 ± 0.041
308.15 K, x1 = 0.9799 | 1251.9 ± 1.3 | 1569 ± 7 | 8.078 ± 0.065
308.15 K, x1 = 1 | 1257 ± 1.3 | 1576 ± 7 | 8.795 ± 0.07
313.15 K, x1 = 0.0218 | 885.1 ± 0.8 | 1092 ± 5 | 0.3633 ± 0.004
313.15 K, x1 = 0.1511 | 939.5 ± 0.9 | 1154 ± 5 | 0.4961 ± 0.0051
313.15 K, x1 = 0.2748 | 989.9 ± 1 | 1216 ± 5 | 0.6874 ± 0.0067
313.15 K, x1 = 0.4012 | 1040.5 ± 1 | 1283 ± 5 | 0.9781 ± 0.0092
313.15 K, x1 = 0.5068 | 1082.1 ± 1.1 | 1346 ± 6 | 1.292 ± 0.012
313.15 K, x1 = 0.598 | 1116.7 ± 1.1 | 1397 ± 6 | 1.752 ± 0.016
313.15 K, x1 = 0.7331 | 1164.7 ± 1.2 | 1464 ± 6 | 2.7 ± 0.024
313.15 K, x1 = 0.8548 | 1205.5 ± 1.3 | 1513 ± 6 | 4.281 ± 0.037
313.15 K, x1 = 0.9799 | 1245.8 ± 1.3 | 1555 ± 6 | 7.092 ± 0.058
313.15 K, x1 = 1 | 1251.6 ± 1.3 | 1558 ± 7 | 7.837 ± 0.063
